Laboratory results reported in patent US20240247080A1, “GLP1/GIP/NPY2 RECEPTOR TRIPLE AGONISTS” (Boehringer Ingelheim International GmbH, priority 2022, published 2024).
Like-named read-outs stand apart in the source and are kept apart here. Non-standard residues stand in square brackets, D forms with d. Residues, ends and D or L forms follow the SMILES beside them. Groups on a side chain read outwards from the residue. ξ: configuration not given here. *: point of attachment. C18 diacid = O=C(O)CCCCCCCCCCCCCCCCC(=O)*; NMeY = CN[C@@H](Cc1ccc(O)cc1)C(=O)O; Palmitoyl = CCCCCCCCCCCCCCCC(=O)*; αMeF = C[C@](N)(Cc1ccccc1)C(=O)O; ξIva = CCC(C)(N)C(=O)O; Aib = CC(C)(N)C(=O)O

What was measured:
[1] = Solubility in 0.1 M phosphate buffer at pH 7; type: physicochemical
Method: Peptides (as TFA-salts) were weighed out in a filter unit (Mini-UniPrep Syringieless Filter 0.45 prn. Whatman PVDF), and 0.1 M phosphate buffer at pH 7 was added to achieve 10 mg/mL final peptide concentration. The peptides were dissolved by shaking the filter units horizontally at 600 rpm for 2 hours at room temperature. Samples were then filtered to remove any insoluble particles. Controls were prepared by weighing out the corresponding peptide solid material and dissolving it in an appropriate vehicle (e.g. ACN:H2O) to a final concentration of 1 mg/mL. Both, the control and sample were analyzed by reversed phase chromatography. The area under the peak of the sample was compared to the control and the solubility was calculated based on that ratio. The pH was measured and recorded for each sample.

[2] = Mouse PK after intravenous application; type: in vivo; details: mean residence time, intravenous 30-60 nmol/kg, male NMRI mice
Procedure, shortened: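 Male NMRI mice (30–40 g) received 30-60 nmol/kg peptide by tail-vein injection, dissolved in 50 mM phosphate buffer (pH 7.4)/3.5% mannitol. Saphenous blood was sampled up to 56 hours post-dose and EDTA plasma analysed by LC-MS. PK parameters came from non-compartmental analysis.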

Row | SMILES | solubility [1] [µg/mL] | MRT ([2]; in vivo) [h] | solubility ([1]; phosphate buffer) [µg/mL] | MRT ([2]; plasma) [h]
1 | CCCCCCCCCCCCCCCC(=O)NCC(=O)NCC(=O)NCC(=O)NCC(=O)NCCCC[C@H](NC(=O)[C@H](CC(=O)O)NC(=O)[C@H](CO)NC(=O)[C@@H](NC(=O)[C@](C)(Cc1ccccc1)NC(=O)[C@@H](NC(=O)CNC(=O)[C@H](CCC(=O)O)NC(=O)C(C)(C)NC(=O)[C@H](Cc1ccc(O)cc1)NC)[C@@H](C)O)[C@@H](C)O)C(=O)N[C@@H](CO)C(=O)N[C@H](C(=O)NC(C)(C)C(=O)N[C@@H](CC(C)C)C(=O)N[C@@H](CCC(=O)O)C(=O)N[C@@H](CCCCN)C(=O)N[C@@H](CCC(N)=O)C(=O)N[C@@H](CCCNC(=N)N)C(=O)N[C@@H](CCC(N)=O)C(=O)NC(C)(CC)C(=O)N[C@@H](CCC(=O)O)C(=O)N[C@@H](Cc1ccccc1)C(=O)N[C@H](C(=O)N[C@@H](CCCNC(=N)N)C(=O)N[C@@H](Cc1c[nH]cn1)C(=O)N[C@@H](CC(C)C)C(=O)N[C@@H](CC(C)C)C(=O)N[C@@H](CC(N)=O)C(=O)N[C@@H](CCCCN)C(=O)NC(C)(C)C(=O)N[C@H](C(=O)N[C@@H](CCCNC(=N)N)C(=O)N[C@@H](CCC(N)=O)C(=O)N[C@@H](CCCNC(=N)N)C(=O)N[C@@H](Cc1ccc(O)cc1)C(N)=O)[C@@H](C)O)C(C)C)[C@@H](C)CC (stereo partly drawn) [Ref. 1, NMeY-Aib-E-G-T-aMeF-T-S-D-K(1,3)-S-I-Aib-L-E-K-Q-R-Q-Iva-E-F-V-R-H-L-L-N-K-Aib-T-R-Q-R-Y-NH2.C16A-G-G-G-G(1,2), reference compound] (H-[NMeY][Aib]EGT[αMeF]TSDK([Gly-Gly-Gly-Gly-Palmitoyl])SI[Aib]LEKQRQ[ξIva]EFVRHLLNK[Aib]TRQRY-NH2) | < 1000 | < 1 |  | 
2 | CC[C@H](C)[C@H](NC(=O)[C@H](CO)NC(=O)[C@H](CCCCNC(=O)CNC(=O)CNC(=O)CNC(=O)CNC(=O)CCCCCCCCCCCCCCCCC(=O)O)NC(=O)[C@H](CC(=O)O)NC(=O)[C@H](CO)NC(=O)[C@@H](NC(=O)[C@](C)(Cc1ccccc1)NC(=O)[C@@H](NC(=O)CNC(=O)[C@H](CCC(=O)O)NC(=O)C(C)(C)NC(=O)[C@H](Cc1ccc(O)cc1)NC)[C@@H](C)O)[C@@H](C)O)C(=O)NC(C)(C)C(=O)N[C@@H](CC(C)C)C(=O)N[C@@H](CCC(=O)O)C(=O)N[C@@H](CCCCN)C(=O)N[C@@H](CCC(N)=O)C(=O)N[C@@H](CCCNC(=N)N)C(=O)N[C@@H](CCC(N)=O)C(=O)NC(C)(CC)C(=O)N[C@@H](CCC(=O)O)C(=O)N[C@@H](Cc1ccccc1)C(=O)N[C@H](C(=O)N[C@@H](CCCNC(=N)N)C(=O)N[C@@H](Cc1c[nH]cn1)C(=O)N[C@@H](CC(C)C)C(=O)N[C@@H](CC(C)C)C(=O)N[C@@H](CC(N)=O)C(=O)N[C@@H](CCCCN)C(=O)NC(C)(C)C(=O)N[C@H](C(=O)N[C@@H](CCCNC(=N)N)C(=O)N[C@@H](CCC(N)=O)C(=O)N[C@@H](CCCNC(=N)N)C(=O)N[C@@H](Cc1ccc(O)cc1)C(N)=O)[C@@H](C)O)C(C)C (stereo partly drawn) [Ref. 2, NMeY-Aib-E-G-T-aMeF-T-S-D-K(1,3)-S-I-Aib-L-E-K-Q-R-Q-Iva-E-F-V-R-H-L-L-N-K-Aib-T-R-Q-R-Y-NH2.C18DA-G-G-G-G(1,2), reference compound] (H-[NMeY][Aib]EGT[αMeF]TSDK([Gly-Gly-Gly-Gly-C18 diacid])SI[Aib]LEKQRQ[ξIva]EFVRHLLNK[Aib]TRQRY-NH2) |  |  | < 1000 | 4.3
